Key:
DDR1 = molecular target: T1, DDR1 (Homo sapiens, UniProt Q08345); experiment: HotSpot radiometric kinase assay (Reaction Biology), DDR1; format: biochemical; conditions: 200 nM kinase, substrate IRS1tide 20 μM, 33P-ATP, 120 minutes at room temperature
T1 construct: purchased Reaction Biology
Method: (§1) The compounds were profiled in the HotSpot radiometric assays (Reaction Biology).
Briefly, • 1. Substrate indicated in Table 1 was dissolved in freshly prepared reaction buffer (20 mM HEPES (pH 7.5), 10 mM MgCl2, 1 mM EGTA, 0.01% Brij35, 0.02 mg/ml BSA, 0.1 mM Na3VO4, 2 mM DTT, 1% DMSO) at the concentration indicated in Table 1. • 2. Corresponding kinase (concentration indicated in Table 1) was added and the mixture was gently mixed. • 3. Tested compound dissolved in DMSO was added into the kinase reaction mixture. • 4. ^33P-ATP (specific activity 0.01 μCi/μL final) was added into the reaction mixture to initiate the reaction. • 5. The kinase reaction was incubated for 120 minutes at room temperature. • 6. […] The radioactive phosphorylated substrate remaining on the filter paper was measured.
(§2) Kinase activity data were expressed as the percent remaining kinase activity in tested samples compared to the vehicle (DMSO) reactions. IC50 values and curve fits were obtained using Prism4 Software (GraphPad).

FLT3 = molecular target: T2, FLT3 (Homo sapiens, UniProt P36888); experiment: HotSpot radiometric kinase assay (Reaction Biology), FLT3; format: biochemical; conditions: 4 nM kinase, substrate ABLtide 20 μM, 33P-ATP, 120 minutes at room temperature
T2 construct: purchased Reaction Biology
T2 sequence (P36888 27-993): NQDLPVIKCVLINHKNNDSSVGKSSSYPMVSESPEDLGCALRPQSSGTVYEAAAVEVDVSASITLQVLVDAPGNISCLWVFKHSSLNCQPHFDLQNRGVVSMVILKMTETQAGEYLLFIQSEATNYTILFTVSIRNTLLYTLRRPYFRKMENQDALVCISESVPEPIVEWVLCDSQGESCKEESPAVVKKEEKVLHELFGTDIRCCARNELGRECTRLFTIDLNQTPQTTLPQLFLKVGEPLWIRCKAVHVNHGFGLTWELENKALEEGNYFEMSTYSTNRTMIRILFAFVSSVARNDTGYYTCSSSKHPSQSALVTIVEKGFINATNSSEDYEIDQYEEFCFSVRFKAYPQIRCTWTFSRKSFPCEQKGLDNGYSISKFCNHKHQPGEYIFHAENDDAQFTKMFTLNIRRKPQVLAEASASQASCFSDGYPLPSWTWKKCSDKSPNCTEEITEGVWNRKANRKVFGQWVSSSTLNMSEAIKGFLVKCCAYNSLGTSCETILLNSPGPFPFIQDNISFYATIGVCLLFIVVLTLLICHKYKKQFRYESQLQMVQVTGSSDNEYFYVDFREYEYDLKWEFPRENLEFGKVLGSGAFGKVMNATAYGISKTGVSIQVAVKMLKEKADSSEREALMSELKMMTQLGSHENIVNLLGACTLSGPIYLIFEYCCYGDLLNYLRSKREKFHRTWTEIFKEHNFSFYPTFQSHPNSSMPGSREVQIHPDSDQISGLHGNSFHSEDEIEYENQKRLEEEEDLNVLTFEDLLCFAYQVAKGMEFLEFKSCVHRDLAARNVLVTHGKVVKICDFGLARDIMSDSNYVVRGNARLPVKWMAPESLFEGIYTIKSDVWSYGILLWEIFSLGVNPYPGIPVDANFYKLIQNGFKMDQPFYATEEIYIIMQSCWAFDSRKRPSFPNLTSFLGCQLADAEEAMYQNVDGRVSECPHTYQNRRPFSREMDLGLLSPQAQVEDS
Method: as §1
Briefly, • 1. Substrate indicated in Table 1 was dissolved in freshly prepared reaction buffer (20 mM HEPES (pH 7.5), 10 mM MgCl2, 1 mM EGTA, 0.01% Brij35, 0.02 mg/ml BSA, 0.1 mM Na3VO4, 2 mM DTT, 1% DMSO) at the concentration indicated in Table 1. • 2. Corresponding kinase (concentration indicated in Table 1) was added and the mixture was gently mixed. • 3. Tested compound dissolved in DMSO was added into the kinase reaction mixture. • 4. ^33P-ATP (specific activity 0.01 μCi/μL final) was added into the reaction mixture to initiate the reaction. • 5. The kinase reaction was incubated for 120 minutes at room temperature. • 6. Reaction mixture was spotted onto P81 ion exchange paper (Whatman K 3698-915). • 7. The filters were extensively washed with […]. • 7. The radioactive phosphorylated substrate remaining on the filter paper was measured.
as §2
Table 2 summarizes the inhibitory activities of indicated compounds tested in the in vitro kinase assays described above.

T1 sequence (Q08345 19-913): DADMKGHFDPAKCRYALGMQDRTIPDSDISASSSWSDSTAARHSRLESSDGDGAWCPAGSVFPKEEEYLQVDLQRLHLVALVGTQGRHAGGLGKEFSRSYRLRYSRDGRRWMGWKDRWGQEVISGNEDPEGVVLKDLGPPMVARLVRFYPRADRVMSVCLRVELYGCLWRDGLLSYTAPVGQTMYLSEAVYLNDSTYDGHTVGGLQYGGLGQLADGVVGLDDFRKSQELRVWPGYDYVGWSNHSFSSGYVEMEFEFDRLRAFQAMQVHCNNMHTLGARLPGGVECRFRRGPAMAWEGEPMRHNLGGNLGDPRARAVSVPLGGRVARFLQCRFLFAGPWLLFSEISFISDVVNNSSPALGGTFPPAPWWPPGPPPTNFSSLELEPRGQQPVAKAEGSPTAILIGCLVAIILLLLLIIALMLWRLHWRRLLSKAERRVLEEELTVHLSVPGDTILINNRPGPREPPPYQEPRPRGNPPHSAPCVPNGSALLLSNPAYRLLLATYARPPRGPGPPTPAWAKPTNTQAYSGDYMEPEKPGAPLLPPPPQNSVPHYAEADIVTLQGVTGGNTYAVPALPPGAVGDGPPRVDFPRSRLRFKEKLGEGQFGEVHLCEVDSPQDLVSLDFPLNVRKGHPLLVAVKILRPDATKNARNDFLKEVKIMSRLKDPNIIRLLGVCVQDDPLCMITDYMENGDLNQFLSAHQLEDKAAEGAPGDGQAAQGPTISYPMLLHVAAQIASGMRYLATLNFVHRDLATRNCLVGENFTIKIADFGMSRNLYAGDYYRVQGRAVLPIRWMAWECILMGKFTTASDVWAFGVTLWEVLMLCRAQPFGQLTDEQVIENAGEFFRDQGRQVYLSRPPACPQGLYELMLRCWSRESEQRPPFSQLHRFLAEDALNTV

IC50 (DDR1)	IC50 (FLT3)	SMILES
367 nM	224 nM	Cc1nn(C)cc1-c1coc2cc(-c3ccc(N4CCN(C)CC4)cc3)cnc12 [Preparative Example 216, 1-{4-[3-(1,3-dimethyl-1H-pyrazol-4-yl)furo[3,2-b]pyridin-6-yl]phenyl}-4-methylpiperazine]
222 nM	282 nM	Cn1ccc(-c2coc3cc(-c4ccc(N5CCNCC5)cc4)cnc23)n1 [Preparative Example 37, 3-(1-methyl-1H-pyrazol-3-yl)-6-(4-(piperazin-1-yl)phenyl)furo[3,2-b]pyridine]
70 nM	269 nM	CN1CCN(c2ccc(-c3cnc4c(-c5ccccc5)c(-c5ccncc5)oc4c3)cc2)CC1 [Preparative Example 223, 1-methyl-4-{4-[3-phenyl-2-(pyridin-4-yl)furo[3,2-b]pyridin-6-yl]phenyl}piperazine]
620 nM	373 nM	CN1CCN(c2ccc(-c3cnc4c(Cc5ccccc5)coc4c3)cc2)CC1 [Preparative Example 186, 3-benzyl-6-(4-(4-methylpiperazin-1-yl)phenyl)furo[3,2-b]pyridine]
184 nM	226 nM	COc1ccccc1-c1coc2cc(-c3ccc(N4CCNCC4)cc3)cnc12 [Preparative Example 17, 3-(2-methoxyphenyl)-6-(4-(piperazin-1-yl)phenyl)furo[3,2-b]pyridine]
673 nM	353 nM	FC(F)(F)COc1cccc(-c2coc3cc(-c4ccc(N5CCNCC5)cc4)cnc23)c1 [Preparative Example 116, 6-(4-(piperazin-1-yl)phenyl)-3-(3-(2,2,2-trifluoroethoxy)phenyl)furo[3,2-b]pyridine]
196 nM	54 nM	COCc1cccc(-c2coc3cc(-c4ccc(N5CCNCC5)cc4)cnc23)c1 [Preparative Example 70, 3-(3-(methoxymethyl)phenyl)-6-(4-(piperazin-1-yl)phenyl)furo[3,2-b]pyridine]
73 nM	24 nM	CCNC(=O)Cc1cccc(-c2coc3cc(-c4ccc(N5CCNCC5)cc4)cnc23)c1 [Preparative Example 152, N-ethyl-2-(3-(6-(4-(piperazin-1-yl)phenyl)furo[3,2-b]pyridin-3-yl)phenyl)acetamide]
209 nM	832 nM	c1ccc(-c2ccccc2-c2coc3cc(-c4ccc(N5CCNCC5)cc4)cnc23)cc1 [Preparative Example 161, 3-([1,1′-biphenyl]-2-yl)-6-(4-(piperazin-1-yl)phenyl)furo[3,2-b]pyridine]
172 nM	22 nM	c1cc(-c2coc3cc(-c4ccc(N5CCNCC5)cc4)cnc23)co1 [Preparative Example 57, 3-(furan-3-yl)-6-(4-(piperazin-1-yl)phenyl)furo[3,2-b]pyridine]
98 nM	142 nM	O=[N+]([O-])c1cccc(-c2coc3cc(-c4ccc(N5CCNCC5)cc4)cnc23)c1 [Preparative Example 40, 3-(3-nitrophenyl)-6-(4-(piperazin-1-yl)phenyl)furo[3,2-b]pyridine]
126 nM	175 nM	Cc1ccc(-c2coc3cc(-c4ccc(N5CCNCC5)cc4)cnc23)cc1 [Preparative Example 43, 6-(4-(piperazin-1-yl)phenyl)-3-(p-tolyl)furo[3,2-b]pyridine]
236 nM	203 nM	CSc1cccc(-c2coc3cc(-c4ccc(N5CCN(C)CC5)cc4)cnc23)c1 [Preparative Example 147, 6-(4-(4-methylpiperazin-1-yl)phenyl)-3-(3-(methylthio)phenyl)furo[3,2-b]pyridine]
290 nM	225 nM	CN1CCN(c2ccc(-c3cnc4c(-c5cccc(S(C)(=O)=O)c5)coc4c3)cc2)CC1 [Preparative Example 175, 6-(4-(4-methylpiperazin-1-yl)phenyl)-3-(3-(methylsulfonyl)phenyl)furo[3,2-b]pyridine]
186 nM	147 nM	Cc1c(-c2ccc(N3CCN(C)CC3)cc2)cnc2c(-c3ccccc3)coc12 [Preparative Example 188, 7-methyl-6-(4-(4-methylpiperazin-1-yl)phenyl)-3-phenylfuro[3,2-b]pyridine]
77 nM	22 nM	CONC(=O)c1cccc(-c2coc3cc(-c4ccc(N5CCN(C)CC5)cc4)cnc23)c1 [Preparative Example 238, N-methoxy-3-{6-[4-(4-methylpiperazin-1-yl)phenyl]furo[3,2-b]pyridin-3-yl}benzamide]
191 nM	141 nM	COc1ccc(-c2coc3cc(-c4ccc(N5CCN(C)CC5)cc4)cnc23)cc1 [Preparative Example 255, 3-(4-methoxyphenyl)-6-(4-(4-methylpiperazin-1-yl)phenyl)furo[3,2-b]pyridine]
773 nM	118 nM	CN1CCN(c2ccc(-c3cnc4c(-c5cccc(CS(=O)(=O)N(C)C)c5)coc4c3)cc2)CC1 [Preparative Example 145, N,N-dimethyl-1-(3-(6-(4-(4-methylpiperazin-1-yl)phenyl)furo[3,2-b]pyridin-3-yl)phenyl)methane-sulfonamide]
148 nM	96 nM	Cc1oc2cc(-c3ccc(N4CCN(C)CC4)cc3)cnc2c1-c1ccccc1 [Preparative Example 196, 1-methyl-4-(4-{2-methyl-3-phenylfuro[3,2-b]pyridin-6-yl}phenyl)piperazine]
364 nM	31 nM	CN1CCN(c2ccc(-c3cnc4c(-c5ccncc5)coc4c3)cc2)CC1 [Preparative Example 58, 6-(4-(4-methylpiperazin-1-yl)phenyl)-3-(pyridin-4-yl)furo[3,2-b]pyridine]
385 nM	345 nM	CN(C)c1cccc(-c2coc3cc(-c4ccc(N5CCNCC5)cc4)cnc23)c1 [Preparative Example 131, N,N-dimethyl-3-(6-(4-(piperazin-1-yl)phenyl)furo[3,2-b]pyridin-3-yl)aniline]
200 nM	28 nM	CN1CCN(c2ccc(-c3cnc4c(-c5ccc(C#N)cc5)coc4c3)cc2)CC1 [Preparative Example 257, 4-(6-(4-(4-methylpiperazin-1-yl)phenyl)furo[3,2-b]pyridin-3-yl)benzonitrile]
966 nM	717 nM	FC(F)(F)c1cccc(-c2coc3cc(-c4ccc(N5CCNCC5)cc4)cnc23)c1 [Preparative Example 73, 6-(4-(piperazin-1-yl)phenyl)-3-(3-(trifluoromethyl)phenyl)furo[3,2-b]pyridine]
622 nM	99 nM	CCOC(=O)Nc1cccc(-c2coc3cc(-c4ccc(N5CCN(C)CC5)cc4)cnc23)c1 [Preparative Example 83, ethyl (3-(6-(4-(4-methylpiperazin-1-yl)phenyl)furo[3,2-b]pyridin-3-yl)phenyl)carbamate]
206 nM	78 nM	CC(=O)NCc1cccc(-c2coc3cc(-c4ccc(N5CCN(C)CC5)cc4)cnc23)c1 [Preparative Example 137, N-(3-(6-(4-(4-methylpiperazin-1-yl)phenyl)furo[3,2-b]pyridin-3-yl)benzyl)acetamide]

Reference: patent publication US20250352550A1, “SUBSTITUTED FUROPYRIDINES FOR THERAPEUTIC USE” (MASARYKOVA UNIVERZITA, priority 2022, published 2025)
